Source: US8802700B2 (Vertex Pharmaceuticals Incorporated, priority 2010, dated 2014)

Biological target: T1, ΔF508-CFTR (Homo sapiens, UniProt P13569, DEL508-508)
T1 construct: expressed in transfected cells
Experiment: Membrane potential optical assay (FRET voltage-sensor dyes, VIPR), identification of potentiator compounds
Type: cell-based
Conditions: Table 3, assay not given; for Emax: read-out: % Activity (% Efficacy, relative efficacy)
How it was run: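 NIH3T3 mouse fibroblasts stably expressing ΔF508-CFTR, cultured 24 h at 27 °C, were loaded with FRET voltage dyes CC2-DMPE and DiSBAC2(3). Double-addition format: first addition of Cl⁻-free (gluconate) medium with or without compound; membrane-potential change read as fluorescence on VIPR II.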

T1 sequence (P13569 with tags, fused parts or gaps DEL508-508): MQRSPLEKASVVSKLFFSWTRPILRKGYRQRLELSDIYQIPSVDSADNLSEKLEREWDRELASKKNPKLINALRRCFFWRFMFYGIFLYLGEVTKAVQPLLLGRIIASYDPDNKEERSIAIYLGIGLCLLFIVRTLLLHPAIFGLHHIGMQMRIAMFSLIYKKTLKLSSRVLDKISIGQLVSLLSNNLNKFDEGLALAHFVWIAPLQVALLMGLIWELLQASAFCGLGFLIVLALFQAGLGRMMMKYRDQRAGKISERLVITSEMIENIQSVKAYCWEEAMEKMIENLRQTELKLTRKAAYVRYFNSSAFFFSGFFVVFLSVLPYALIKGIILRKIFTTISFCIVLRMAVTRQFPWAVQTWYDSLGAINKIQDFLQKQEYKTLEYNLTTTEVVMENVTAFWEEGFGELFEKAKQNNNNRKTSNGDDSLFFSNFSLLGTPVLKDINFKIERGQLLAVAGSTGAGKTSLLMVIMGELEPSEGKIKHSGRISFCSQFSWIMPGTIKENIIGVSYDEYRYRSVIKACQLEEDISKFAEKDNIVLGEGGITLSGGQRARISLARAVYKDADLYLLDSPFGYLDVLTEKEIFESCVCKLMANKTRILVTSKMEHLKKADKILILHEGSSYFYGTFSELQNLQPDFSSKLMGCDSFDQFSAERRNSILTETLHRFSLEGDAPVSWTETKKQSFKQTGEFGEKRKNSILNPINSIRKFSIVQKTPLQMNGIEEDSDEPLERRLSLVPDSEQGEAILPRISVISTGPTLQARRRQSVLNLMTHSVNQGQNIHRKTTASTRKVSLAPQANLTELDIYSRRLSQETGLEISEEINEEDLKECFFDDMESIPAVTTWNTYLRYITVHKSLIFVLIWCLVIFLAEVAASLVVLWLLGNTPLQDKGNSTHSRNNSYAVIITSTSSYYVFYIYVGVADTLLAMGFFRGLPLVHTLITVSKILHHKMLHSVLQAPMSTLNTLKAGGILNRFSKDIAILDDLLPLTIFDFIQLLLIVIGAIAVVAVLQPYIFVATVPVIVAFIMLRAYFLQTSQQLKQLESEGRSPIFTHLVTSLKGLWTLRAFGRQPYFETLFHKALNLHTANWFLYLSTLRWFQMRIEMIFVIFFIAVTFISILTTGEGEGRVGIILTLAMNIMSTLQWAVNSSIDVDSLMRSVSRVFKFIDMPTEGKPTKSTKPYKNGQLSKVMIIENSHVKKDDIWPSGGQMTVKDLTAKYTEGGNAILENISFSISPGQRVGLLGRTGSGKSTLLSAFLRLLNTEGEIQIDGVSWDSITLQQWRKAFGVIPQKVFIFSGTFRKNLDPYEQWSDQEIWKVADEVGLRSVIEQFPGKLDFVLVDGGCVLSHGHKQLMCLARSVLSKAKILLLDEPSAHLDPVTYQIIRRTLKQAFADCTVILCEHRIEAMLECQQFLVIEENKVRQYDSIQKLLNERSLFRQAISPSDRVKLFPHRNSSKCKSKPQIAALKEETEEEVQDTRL

CC(C)(C)c1cc(C(C)(C)C)c(NC(=O)c2c[nH]c3cccc(N)c3c2=O)cc1O [Compound 585, 5-amino-N-(5-hydroxy-2,4-ditert-butyl-phenyl)-4-oxo-1H-quinoline-3-carboxamide]
Emax: > 100%

CC(C)OC(=O)c1cccc(-c2ccccc2NC(=O)c2c[nH]c3ccccc3c2=O)c1 [Compound 71, 3-[2-[(4-oxo-1H-quinolin-3-yl)carbonylamino]phenyl]benzoic acid isopropyl ester]
Emax: 25 to 100%

CC1(c2cc(F)c(NC(=O)c3c[nH]c4cccc(C(F)(F)F)c4c3=O)cc2O)CCCCC1 [Compound 706, N-[2-fluoro-5-hydroxy-4-(1-methylcyclohexyl)-phenyl]-4-oxo-5-(trifluoromethyl)-1H-quinoline-3-carboxamide]
Emax: > 100%

Cc1cccc2[nH]cc(C(=O)Nc3ccc(N4[C@@H](C)CC[C@@H]4C)cc3C(F)(F)F)c(=O)c12 [Compound 516, N-(4-((2S,5S)-2,5-dimethylpyrrolidin-1-yl)-2-(trifluoromethyl)phenyl)-5-methyl-4-oxo-1,4-dihydroquinoline-3-carboxamide]
Emax: 25 to 100%

O=C(Nc1ccc2cc(C(F)(F)F)[nH]c2c1)c1c[nH]c2cccc(O)c2c1=O [Compound 693, 5-hydroxy-4-oxo-N-[2-(trifluoromethyl)-1H-indol-6-yl]-1H-quinoline-3-carboxamide]
Emax: 25 to 100%

CC(C)(C)c1ccc(O)cc1NC(=O)c1c[nH]c2cccc(O)c2c1=O [Compound 609, 5-hydroxy-N-(5-hydroxy-2-tert-butyl-phenyl)-4-oxo-1H-quinoline-3-carboxamide]
Emax: 25 to 100%

Cc1cccc2[nH]cc(C(=O)Nc3ccc(N4CCC[C@@H]4C)cc3C(F)(F)F)c(=O)c12 [Compound 511, (S)-5-methyl-N-(4-(2-methylpyrrolidin-1-yl)-2-(trifluoromethyl)phenyl)-4-oxo-1,4-dihydroquinoline-3-carboxamide]
Emax: 25 to 100%

CCc1cccc(C)c1NC(=O)c1c[nH]c2ccccc2c1=O [Compound 180, N-(2-ethyl-6-methyl-phenyl)-4-oxo-1H-quinoline-3-carboxamide]
Emax: 25 to 100%

O=C(Nc1ccc(OC(F)(F)F)cc1)c1c[nH]c2ccccc2c1=O [Compound 176, 4-oxo-N-[4-(trifluoromethoxy)phenyl]-1H-quinoline-3-carboxamide]
Emax: 25 to 100%

CCOc1cccc2c(=O)c(C(=O)Nc3ccc(C(C)C)cc3C(F)(F)F)c[nH]c12 [Compound 517, 8-ethoxy-N-[4-isopropyl-2-(trifluoromethyl)phenyl]-4-oxo-1H-quinoline-3-carboxamide]
Emax: < 25%

CCc1cccc(C(C)CC)c1NC(=O)c1c[nH]c2ccccc2c1=O (centres unmarked) [Compound 322, N-(2-ethyl-6-sec-butyl-phenyl)-4-oxo-1H-quinoline-3-carboxamide]
Emax: 25 to 100%

O=C(Nc1cc(N2CCCCC2)cc(C(F)(F)F)c1)c1c[nH]c2ccccc2c1=O [Compound 488, 4-oxo-N-[3-(1-piperidyl)-5-(trifluoromethyl)phenyl]-1H-quinoline-3-carboxamide]
Emax: 25 to 100%

N#Cc1ccc(NC(=O)c2c[nH]c3ccccc3c2=O)cc1 [Compound 194, N-(4-cyanophenyl)-4-oxo-1H-quinoline-3-carboxamide]
Emax: < 25%

CC(C)(C)c1c[nH]c2cc(NC(=O)c3c[nH]c4ccccc4c3=O)c(C(F)(F)F)cc12 [Compound 508, 4-oxo-N-[3-tert-butyl-5-(trifluoromethyl)-1H-indol-6-yl]-1H-quinoline-3-carboxamide]
EC50: < 10 µM | Emax: 25 to 100%

O=C(Nc1ccc2c3c([nH]c2c1)CCCC3)c1c[nH]c2ccccc2c1=O [Compound 244, 4-oxo-N-(6,7,8,9-tetrahydro-5H-carbazol-2-yl)-1H-quinoline-3-carboxamide]
Emax: 25 to 100%

O=C(Nc1ccccc1)c1c[nH]c2ccccc2c1=O [Compound 215, 4-Oxo-N-phenyl-1H-quinoline-3-carboxamide]
Emax: 25 to 100%

CC1(c2cc(F)c(NC(=O)c3cnc4ccccc4c3O)cc2O)CCCCCC1 [Compound 483, N-[2-fluoro-5-hydroxy-4-(1-methylcycloheptyl)-phenyl]-4-hydroxy-quinoline-3-carboxamide]
Emax: 25 to 100%

O=C(Nc1ccccc1-c1ccc2[nH]ccc2c1)c1c[nH]c2ccccc2c1=O [Compound 118, N-[2-(1H-indol-5-yl)phenyl]-4-oxo-1H-quinoline-3-carboxamide]
EC50: < 10 µM | Emax: 25 to 100%

O=C(Nc1ccc(Cl)cc1)c1c[nH]c2ccccc2c1=O [Compound 405, N-(4-chlorophenyl)-4-oxo-1H-quinoline-3-carboxamide]
Emax: 25 to 100%

CC(C)(C)c1ccc(NC(=O)c2cnc3ccccc3c2OCc2ccccc2)cc1O [Compound 275, 4-Benzyloxy-N-(3-hydroxy-4-tert-butyl-phenyl)-quinoline-3-carboxamide]
Emax: 25 to 100%

CC(=O)c1ccc2c(=O)c(C(=O)Nc3cc(O)c(C(C)(C)C)cc3C(C)(C)C)c[nH]c2c1 [Compound 604, 7-acetyl-N-(5-hydroxy-2,4-ditert-butyl-phenyl)-4-oxo-1H-quinoline-3-carboxamide]
Emax: 25 to 100%

O=C(Nc1cccc2ncccc12)c1c[nH]c2ccccc2c1=O [Compound 191, 4-oxo-N-(5-quinolyl)-1H-quinoline-3-carboxamide]
Emax: < 25%

CC(C)(C)c1ccccc1NC(=O)c1c[nH]c2ccccc2c1=O [Compound 90, 4-oxo-N-(2-tert-butylphenyl)-1H-quinoline-3-carboxamide]
Emax: 25 to 100%

O=C(Nc1cc(Cl)ccc1Oc1ccccc1)c1c[nH]c2ccccc2c1=O [Compound 292, N-(5-chloro-2-phenoxy-phenyl)-4-oxo-1H-quinoline-3-carboxamide]
Emax: 25 to 100%

CC(C)(C)OC(=O)N1CCc2ccc(NC(=O)c3c[nH]c4ccccc4c3=O)cc2C1 [Compound 107, 7-[(4-oxo-1H-quinolin-3-yl)carbonylamino]-1,2,3,4-tetrahydroisoquinoline-2-carboxylic acid tert-butyl ester]
Emax: 25 to 100%

CCOc1ccccc1-c1ccc(N)cc1NC(=O)c1c[nH]c2ccccc2c1=O [Compound 393, N-[5-amino-2-(2-ethoxyphenyl)-phenyl]-4-oxo-1H-quinoline-3-carboxamide]
Emax: 25 to 100%

O=C(Nc1ccc2cc[nH]c2c1)c1c[nH]c2cccc(O)c2c1=O [Compound 116, 5-hydroxy-N-(1H-indol-6-yl)-4-oxo-1H-quinoline-3-carboxamide]
Emax: 25 to 100%

CC(C)(C)c1cc(C(C)(C)C)c(C(F)F)cc1NC(=O)c1c[nH]c2ccccc2c1=O [Compound 438, N-[5-(difluoromethyl)-2,4-ditert-butyl-phenyl]-4-oxo-1H-quinoline-3-carboxamide]
Emax: 25 to 100%

Cc1cccc2c(=O)c(C(=O)Nc3cc4[nH]ccc4cc3C(C)(C)C)c[nH]c12 [Compound 644, 8-methyl-4-oxo-N-(5-tert-butyl-1H-indol-6-yl)-1H-quinoline-3-carboxamide]
Emax: < 25%

COc1nc2ccccc2c(OC)c1C(=O)Nc1ccccc1-c1ccccc1 [Compound 210, 2,4-dimethoxy-N-(2-phenylphenyl)-quinoline-3-carboxamide]
Emax: 25 to 100%

O=C(Nc1cc2[nH]ccc2cc1F)c1c[nH]c2ccccc2c1=O [Compound 77, N-(5-fluoro-1H-indol-6-yl)-4-oxo-1H-quinoline-3-carboxamide]
Emax: 25 to 100%

O=C(Nc1cccc2cc[nH]c12)c1c[nH]c2ccccc2c1=O [Compound 37, N-(1H-indol-7-yl)-4-oxo-1H-quinoline-3-carboxamide]
Emax: 25 to 100%

CC(C)(CNC(=O)OCC1CCOC1)c1ccc(NC(=O)c2c[nH]c3ccccc3c2=O)cc1 (centres unmarked) [Compound 396, [2-methyl-2-[4-[(4-oxo-1H-quinolin-3-yl)carbonylamino]phenyl]-propyl]aminoformic acid tetrahydrofuran-3-ylmethyl ester]
Emax: 25 to 100%

CN(C(=O)c1c[nH]c2ccccc2c1=O)c1cc(O)c(C(C)(C)C)cc1C(C)(C)C [Compound 337, N-(5-hydroxy-2,4-ditert-butyl-phenyl)-N-methyl-4-oxo-1H-quinoline-3-carboxamide]
Emax: 25 to 100%

O=C(Nc1cc2c(cc1O)CCCC2)c1c[nH]c2ccccc2c1=O [Compound 56, 1,4-dihydro-N-(1,2,3,4-tetrahydro-6-hydroxynaphthalen-7-yl)-4-oxoquinoline-3-carboxamide]
Emax: 25 to 100%

O=C(Nc1ccc2cc(C(F)(F)F)[nH]c2c1)c1c[nH]c2ccc(F)cc2c1=O [Compound 495, 6-fluoro-4-oxo-N-[2-(trifluoromethyl)-1H-indol-6-yl]-1H-quinoline-3-carboxamide]
Emax: 25 to 100%

Cc1cccnc1NC(=O)c1c[nH]c2ccccc2c1=O [Compound 192, N-(3-methyl-2-pyridyl)-4-oxo-1H-quinoline-3-carboxamide]
Emax: < 25%

COc1ccc(NC(=O)c2c[nH]c3ccccc3c2=O)cc1N [Compound 378, N-(3-amino-4-methoxy-phenyl)-4-oxo-1H-quinoline-3-carboxamide]
Emax: 25 to 100%

COc1ccc2[nH]cc(C(=O)Nc3ccc(N4CCC[C@@H]4C)cc3C(F)(F)F)c(=O)c2c1 [Compound 601, (S)-6-methoxy-N-(4-(2-methylpyrrolidin-1-yl)-2-(trifluoromethyl)phenyl)-4-oxo-1,4-dihydroquinoline-3-carboxamide]
Emax: 25 to 100%

O=C(Nc1cccc(Cc2ccccc2)c1)c1c[nH]c2ccccc2c1=O [Compound 389, N-(3-benzylphenyl)-4-oxo-1H-quinoline-3-carboxamide]
Emax: 25 to 100%

Cc1ccc(S(=O)(=O)Nc2ccccc2NC(=O)c2c[nH]c3ccccc3c2=O)cc1 [Compound 398, 4-oxo-N-[2-(p-tolylsulfonylamino)phenyl]-1H-quinoline-3-carboxamide]
Emax: 25 to 100%

C[C@@H]1CCCN1c1ccc(NC(=O)c2c[nH]c3ccc(F)cc3c2=O)c(C(F)(F)F)c1 [Compound 684, (R)-6-fluoro-N-(4-(2-methylpyrrolidin-1-yl)-2-(trifluoromethyl)phenyl)-4-oxo-1,4-dihydroquinoline-3-carboxamide]
Emax: 25 to 100%
